From patent US4618612A (Medosan Industrie Biochimiche Riunite S.p.A., priority 1983, dated 1986)
Like-named read-outs stand apart in the source and are kept apart here.

Tests used:
[1] = test system: rat platelet-rich plasma (ADP-induced platelet aggregation); experiment: Anti-platelet aggregation activity in vitro (Born's method), rat platelet-rich plasma, ADP-induced; format: cell-based
Experimental: Preparations (A), (B), (C), (D), (E) and (F) were administered "in vivo" orally and/or parenterally in 0.5% carboxymethylcellulose suspensions in physiological saline at neutral pH. When tested "in vitro", they were finely dispersed in neutral pH physiological saline.
This was studied "in vitro" following Born's method (Born G. W. R., Nature, 194, 937 (1962)) and inducing platelet aggregation with ADP.
Platelet-rich plasma was obtained by centrifugation for 10 minutes at 2,000 rpm of 9 parts rat blood to 1 part 3.13% sodium citrate solution. In performing the aggregation test, 0.2 ml of platelet rich plasm was mixed with a 0.9% NaCl solution to which the test substance was added to a final volume of 0.6 ml; the resulting mixture was incubated at 27° C. for 3 minutes. After inducement with ADP, aggregation was measured continuously with an Elvi 840 Aggregometer (Elvi Logos-Milan) to follow its course. The anti-aggregant effects were determined from the difference in the light transmission of the sample with respect to an ADP control.
Table I reports the platelet aggregation inhibition using different doses of the test compounds at a constant ADP concentration.

[2] = test system: carragenin-induced edema; experiment: Carragenin-induced edema test (Winter); format: in vivo, rat
Experimental: This effect was measured with an experimental model reproducing acute inflammation in rats: the carragenin-induced edema test according to C.

[3] = test system: gastric mucosa; experiment: Gastric tolerance (ulcerogenic activity); format: in vivo, male Wistar rats; details: 4 days; for Mean Severity: scale 0-5; for Gastric Damage index: vehicle 8
Experimental: This was studied by conducting tests of ulcerogenic activity in male Wistar rats, weighing 180 g on the average, in groups of 10 animals each. Three doses of each substance were given, and one group of animals was treated with vehicle only in a volume of 10 ml/kg bodyweight. Each dose was given orally for four consecutive days; on the fifth day, the rats were killed and autopsied. The ulcerogenic effect was assessed according to the following scale:
(1) each hemorrhage point ≥1 mm was evaluated as 1 lesion
(2) hemorrhage points smaller than 1 mm were counted as follows:
(b) from 1 to 19:2 lesions
(c) from 1 to 29:3 lesions
(2) gastric mucosa irritation: 1
(3) hemorrahge points <1 mm: 2
(4) hemorrhage points between 1 and 3 mm: 3
(5) hemorrhage points >3 mm: 4
This scale was used to calculate the following gastric damage index: [formula]

[4] = in vivo; details: mouse, mice
[5] = in vivo; details: rat, rats
[6] = Solubility; format: physicochemical; details: common organic solvents
[7] = test system: human platelet aggregation (PRP); experiment: Human platelet aggregation in vitro induced by ADP, adrenalin, collagen or arachidonate; format: cell-based; details: Homo sapiens
Experimental: Blood samples (20 ml) were obtained by venal puncture of the antecubital fossa using plastic syringes containing trisodium citrate as anticoagulant (final concentration 0.19% w/v). Platelet rich plasma (PRP) was harvested after slow centrifugation at 170 g for 12 min. and 0.2 ml aliquots were dispensed into plastic cuvettes and stored at room temperature throughout the experiment.
Aliquots of 0.2 ml PRP from each sample were treated with ADP, adrenalin, collagen or arachidonate, until the threshold concentrations of these aggregating agents had been reached. The threshold concentration is defined as the minimum whcih will produce irreversible aggregation. Once established, the threshold concentration was used to challenge test samples of each of the 2 test compounds or vehicle (DMSO) which had been incubated for 1 min. at 37 C. in the holding cell of the agregometer, prior to addition of the aggregating agent.
This was reported as the final concentration in the PRP after addition of 2.5-10 ul of test substance.

[8] = ADP 2 μmol/l, dose 1 V/ml (Table II)
[9] = ADP 5 μmol/l, dose 1 V/ml (Table II)
[10] = ADP 7.08 μmol/l, dose 1 /ml (Table I)
[11] = ADP 7.08 μmol/l, dose 2,5 /ml (Table I)
[12] = ADP 7.08 μmol/l, dose 5 /ml (Table I)

Cc1cc(CC(=O)OCCn2cnc3c2c(=O)n(C)c(=O)n3C)n(C)c1C(=O)c1ccc(Cl)cc1 [(B), 1,4-Dimethyl-5-p-chlorobenzoylpyrrol-2-acetate of 7-(2-oxyethyl)theophylline]
% Inhibition [1, 8]: 31% | % Inhibition [1, 9]: 25% | % Inhibition [1, 10]: 20% | % Inhibition [1, 11]: 70% | % Inhibition [1, 12]: 90% | % Edema Inhibition ([2]; I.P., 5 mg/kg, 3 h): 65,2% | % Edema Inhibition ([2]; I.P., 5 mg/kg, 6 h): 60,5% | % Edema Inhibition ([2]; I.P., 5 mg/kg, 24 h): 10,5% | % Edema Inhibition ([2]; I.P., 10 mg/kg, 3 h): 70,6% | % Edema Inhibition ([2]; I.P., 10 mg/kg, 6 h): 71,3% | % Edema Inhibition ([2]; I.P., 10 mg/kg, 24 h): 15,0% | % Edema Inhibition ([2]; I.P., 2,5 mg/kg, 3 h): 52,0% | % Edema Inhibition ([2]; I.P., 2,5 mg/kg, 6 h): 50,0% | % Edema Inhibition ([2]; I.P., 2,5 mg/kg, 24 h): 5,1% | % Edema Inhibition ([2]; OS, 5 mg/kg, 3 h): 66,0% | % Edema Inhibition ([2]; OS, 5 mg/kg, 6 h): 60,0% | % Edema Inhibition ([2]; OS, 5 mg/kg, 24 h): 12,0% | % Edema Inhibition ([2]; OS, 10 mg/kg, 3 h): 73,0% | % Edema Inhibition ([2]; OS, 10 mg/kg, 6 h): 70,3% | % Edema Inhibition ([2]; OS, 10 mg/kg, 24 h): 20,0% | % Edema Inhibition ([2]; OS, 2,5 mg/kg, 3 h): 56,4% | % Edema Inhibition ([2]; OS, 2,5 mg/kg, 6 h): 53,0% | % Edema Inhibition ([2]; OS, 2,5 mg/kg, 24 h): 10,0% | % incidence 10 ([3]; 5 mg/kg oral): 8 %/10 | Gastric Damage index, second figure (after +; difference from vehicle) ([3]; 5 mg/kg oral): 5 | Mean No. lesions ([3]; 5 mg/kg oral): 2,5 | Mean Severity ([3]; 5 mg/kg oral): 2,5 | Gastric Damage index ([3]; 5 mg/kg oral): 13 | % incidence 10 ([3]; 10 mg/kg oral): 9 %/10 | Gastric Damage index, second figure (after +; difference from vehicle) ([3]; 10 mg/kg oral): 8 | Mean No. lesions ([3]; 10 mg/kg oral): 3 | Mean Severity ([3]; 10 mg/kg oral): 4 | Gastric Damage index ([3]; 10 mg/kg oral): 16 | % incidence 10 ([3]; 2,5 mg/kg oral): 7 %/10 | Gastric Damage index, second figure (after +; difference from vehicle) ([3]; 2,5 mg/kg oral): 2 | Mean No. lesions ([3]; 2,5 mg/kg oral): 1 | Mean Severity ([3]; 2,5 mg/kg oral): 2 | Gastric Damage index ([3]; 2,5 mg/kg oral): 10 | LD50 ([4]; ip, I.P.): 140 mg/kg | LD50 ([4]; po, OS): 160 mg/kg | LD50 ([5]; ip, I.P.): 100 mg/kg | LD50 ([5]; po, OS): 150 mg/kg | Solubility [6]: Soluble in common organic solvents

Cc1ccc(C(=O)c2ccc(CC(=O)OCCn3cnc4c3c(=O)n(C)c(=O)n4C)n2C)cc1 [(A), 1-Methyl-5-p-methylbenzoylpyrrol-2-acetate of 7-(2-oxyethyl)theophylline]
% Inhibition [1, 8]: 42% | % Inhibition [1, 9]: 30% | % Inhibition [1, 10]: 25% | % Inhibition [1, 11]: 100% | % Inhibition [1, 12]: 100% | minimal effective concentration ([7]; ATH-8, 1 min, ADP, volunteer 3, read-out: Minimum Effective Concentration (Final in PRP)): 100 µM | minimal effective concentration ([7]; ATH-8, 1 min, Adrenalin, volunteer 3, read-out: Minimum Effective Concentration (Final in PRP)): 10 µM | minimal effective concentration ([7]; ATH-8, 1 min, Arachidonate, volunteer 3, read-out: Minimum Effective Concentration (Final in PRP)): 250 µM | minimal effective concentration ([7]; ATH-8, 1 min, Collagen, volunteer 3, read-out: Minimum Effective Concentration (Final in PRP)): 700 µM | minimal effective concentration ([7]; Platelet, 1 min, ADP, volunteer 1, read-out: Minimum Effective Concentration (Final in PRP)): 10 µM | minimal effective concentration ([7]; Platelet, 1 min, ADP, volunteer 2 (donor gamma), read-out: Minimum Effective Concentration (Final in PRP)): 10 µM | minimal effective concentration ([7]; Platelet, 1 min, Adrenalin, range over 3 volunteers, read-out: Minimum Effective Concentration Range): 10 µM | minimal effective concentration ([7]; Platelet, 1 min, Adrenalin, volunteer 1, read-out: Minimum Effective Concentration (Final in PRP)): 10 µM | minimal effective concentration ([7]; Platelet, 1 min, Adrenalin, volunteer 2 (donor gamma), read-out: Minimum Effective Concentration (Final in PRP)): 10 µM | minimal effective concentration ([7]; Platelet, 1 min, Arachidonate, volunteer 1, read-out: Minimum Effective Concentration (Final in PRP)): 100 µM | minimal effective concentration ([7]; Platelet, 1 min, Arachidonate, volunteer 2 (donor gamma), read-out: Minimum Effective Concentration (Final in PRP)): 10 µM | minimal effective concentration ([7]; Platelet, 1 min, Collagen, volunteer 1, read-out: Minimum Effective Concentration (Final in PRP)): 100 µM | minimal effective concentration ([7]; Platelet, 1 min, Collagen, volunteer 2 (donor gamma), read-out: Minimum Effective Concentration (Final in PRP)): 550 µM | % Edema Inhibition ([2]; I.P., 10 mg/kg, 3 h): 35,0% | % Edema Inhibition ([2]; I.P., 10 mg/kg, 6 h): 26,0% | % Edema Inhibition ([2]; I.P., 10 mg/kg, 24 h): 0,0% | % Edema Inhibition ([2]; I.P., 50 mg/kg, 3 h): 54,0% | % Edema Inhibition ([2]; I.P., 50 mg/kg, 6 h): 40,0% | % Edema Inhibition ([2]; I.P., 50 mg/kg, 24 h): 0,0% | % Edema Inhibition ([2]; I.P., 100 mg/kg, 3 h): 65,0% | % Edema Inhibition ([2]; I.P., 100 mg/kg, 6 h): 56,1% | % Edema Inhibition ([2]; I.P., 100 mg/kg, 24 h): 0,0% | % Edema Inhibition ([2]; OS, 10 mg/kg, 3 h): 34,6% | % Edema Inhibition ([2]; OS, 10 mg/kg, 6 h): 22,2% | % Edema Inhibition ([2]; OS, 10 mg/kg, 24 h): 0,0% | % Edema Inhibition ([2]; OS, 50 mg/kg, 3 h): 52,0% | % Edema Inhibition ([2]; OS, 50 mg/kg, 6 h): 41,1% | % Edema Inhibition ([2]; OS, 50 mg/kg, 24 h): 0,0% | % Edema Inhibition ([2]; OS, 100 mg/kg, 3 h): 62,0% | % Edema Inhibition ([2]; OS, 100 mg/kg, 6 h): 57,3% | % Edema Inhibition ([2]; OS, 100 mg/kg, 24 h): 10,0% | % incidence 10 ([3]; 50 mg/kg oral): 6 %/10 | Gastric Damage index, second figure (after +; difference from vehicle) ([3]; 50 mg/kg oral): 1 | Mean No. lesions ([3]; 50 mg/kg oral): 1 | Mean Severity ([3]; 50 mg/kg oral): 2 | Gastric Damage index ([3]; 50 mg/kg oral): 9 | % incidence 10 ([3]; 100 mg/kg oral): 8 %/10 | Gastric Damage index, second figure (after +; difference from vehicle) ([3]; 100 mg/kg oral): 4 | Mean No. lesions ([3]; 100 mg/kg oral): 2 | Mean Severity ([3]; 100 mg/kg oral): 2 | Gastric Damage index ([3]; 100 mg/kg oral): 12 | % incidence 10 ([3]; 200 mg/kg oral): 8 %/10 | Gastric Damage index, second figure (after +; difference from vehicle) ([3]; 200 mg/kg oral): 6 | Mean No. lesions ([3]; 200 mg/kg oral): 3 | Mean Severity ([3]; 200 mg/kg oral): 3 | Gastric Damage index ([3]; 200 mg/kg oral): 14 | LD50 ([4]; ip, I.P.): 950 mg/kg | LD50 ([4]; po, OS): 1270 mg/kg | LD50 ([5]; ip, I.P.): 800 mg/kg | LD50 ([5]; po, OS): 1150 mg/kg | Solubility [6]: Soluble in common organic solvents
